Test results reported in patent publication US7160888B2, “[1,8]naphthyridin-2-ones and related compounds for the treatment of schizophrenia” (Warner Lambert Company LLC, priority 2003, dated 2007).

What follows are compounds tested against D2 receptor (Homo sapiens, UniProt P14416) (assay: [3H]Thymidine uptake assay for D2 intrinsic activity). Conditions: Table 1; test compound 1 μM; 1 μM Quinpirole = 100% intrinsic activity.
Format: cell-based

Chain of D2 receptor (P14416 whole entry): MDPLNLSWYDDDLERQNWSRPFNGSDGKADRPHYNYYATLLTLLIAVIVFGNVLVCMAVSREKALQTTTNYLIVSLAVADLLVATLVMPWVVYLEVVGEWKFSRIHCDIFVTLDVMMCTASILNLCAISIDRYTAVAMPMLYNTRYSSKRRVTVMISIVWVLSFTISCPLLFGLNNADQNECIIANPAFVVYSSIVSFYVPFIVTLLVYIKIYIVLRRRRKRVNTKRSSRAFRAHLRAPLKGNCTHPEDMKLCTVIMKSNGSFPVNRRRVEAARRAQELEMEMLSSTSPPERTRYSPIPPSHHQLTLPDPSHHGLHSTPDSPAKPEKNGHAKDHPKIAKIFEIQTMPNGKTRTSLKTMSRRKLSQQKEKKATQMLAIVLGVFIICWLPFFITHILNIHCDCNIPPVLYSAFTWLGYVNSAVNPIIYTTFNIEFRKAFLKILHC

**Q.** How did the Emax at 1 µM turn out when `CC(C)COc1ccccc1N1CCN(CCCCOc2ccc3c(n2)NC(=O)CC3)CC1` [Example A27, 7-{4-[4-(2-Isobutoxy-phenyl)-piperazin-1-yl]-butoxy}-3,4-dihydro-1H-[1,8]naphthyridin-2-one] was run?
**A.** 38%

**Q.** Which Emax at 1 µM does the source give for `CCc1c(Cl)cccc1N1CCN(CCCCOc2ccc3c(n2)NC(=O)CC3)CC1` [Example A29, 7-{4-[4-(3-Chloro-2-ethyl-phenyl)-piperazin-1-yl]-butoxy}-3,4-dihydro-1H-[1,8]naphthyridin-2-one] here?
**A.** 20%

**Q.** How did the Emax at 1 µM turn out when `CC(=O)c1c(F)cccc1N1CCN(CCCCOc2ccc3c(n2)NC(=O)CC3)CC1` [Example A30, 7-{4-[4-(2-Acetyl-3-fluoro-phenyl)-piperazin-1-yl]-butoxy}-3,4-dihydro-1H-[1,8]naphthyridin-2-one] was run?
**A.** 11%

**Q.** How did the Emax at 1 µM turn out when `CCc1c(F)cccc1N1CCN(CCCCOc2ccc3c(n2)NC(=O)CC3)CC1` [Example A31, 7-{4-[4-(2-Ethyl-3-fluoro-phenyl)-piperazin-1-yl]-butoxy}-3,4-dihydro-1H-[1,8]naphthyridin-2-one] was run?
**A.** 26%

**Q.** For `CC(=O)c1cccc(N2CCN(CCCCOc3ccc4c(n3)NC(=O)CC4)CC2)c1` [Example A33, 7-{4-[4-(3-Acetyl-phenyl)-piperazin-1-yl]-butoxy}-3,4-dihydro-1H-[1,8]naphthyridin-2-one], which Emax at 1 µM is on record?
**A.** 31%

**Q.** How did the Emax at 1 µM turn out when `CC(=O)c1ccccc1N1CCN(CCCCOc2ccc3c(n2)NC(=O)CC3)CC1` [Example A34, 7-{4-[4-(2-Acetyl-phenyl)-piperazin-1-yl]-butoxy}-3,4-dihydro-1H-[1,8]naphthyridin-2-one] was run?
**A.** 8%

**Q.** `CCc1ccccc1N1CCN(CCCCOc2ccc3c(n2)NC(=O)CC3)CC1` [Example A35, 7-{4-[4-(2-Ethyl-phenyl)-piperazin-1-yl]-butoxy}-3,4-dihydro-1H-[1,8]naphthyridin-2-one] was tested. Which Emax at 1 µM did it give?
**A.** 24%

**Q.** With `O=C1CCc2ccc(OCCCCN3CCN(c4ccccc4C(F)(F)F)CC3)nc2N1` [Example A37, 7-{4-[4-(2-Trifluoromethyl-phenyl)-piperazin-1-yl]-butoxy}-3,4-dihydro-1H-[1,8]naphthyridin-2-one] as the compound, how does the Emax at 1 µM read?
**A.** 46%

**Q.** How did the Emax at 1 µM turn out when `O=C1CCc2ccc(OCCCCN3CCN(c4cccc(C(F)(F)F)c4)CC3)nc2N1` [Example A38, 7-{4-[4-(3-Trifluoromethyl-phenyl)-piperazin-1-yl]-butoxy}-3,4-dihydro-1H-[1,8]naphthyridin-2-one] was run?
**A.** 23%

**Q.** `O=C1CCc2ccc(OCCCCN3CCN(c4ccccc4)CC3)nc2N1` [Example A39, 7-[4-(4-phenyl-piperazin-1-yl)-butoxy]-3,4-dihydro-1H-[1,8]naphthyridin-2-one] was tested. Which Emax at 1 µM did it give?
**A.** 56%

**Q.** Which Emax at 1 µM does the source give for `O=C1CCc2ccc(OCCCCN3CCN(c4ccc(F)cc4)CC3)nc2N1` [Example A40, 7-{4-[4-(4-Fluoro-phenyl)-piperazin-1-yl]-butoxy}-3,4-dihydro-1H-[1,8]naphthyridin-2-one] here?
**A.** 32%

**Q.** With `O=C1CCc2ccc(OCCCCN3CCN(c4ccc(F)cc4F)CC3)nc2N1` [Example A41, 7-{4-[4-(2,4-Difluoro-phenyl)-piperazin-1-yl]-butoxy}-3,4-dihydro-1H-[1,8]naphthyridin-2-one] as the compound, how does the Emax at 1 µM read?
**A.** 28%

**Q.** `CC(F)(F)c1ccccc1N1CCN(CCCCOc2ccc3c(n2)NC(=O)CC3)CC1` [Example A42, 7-(4-{4-[2-(1,1-Difluoro-ethyl)-phenyl]-piperazin-1-yl}-butoxy)-3,4-dihydro-1H-[1,8]naphthyridin-2-one] was tested. Which Emax at 1 µM did it give?
**A.** 28%

**Q.** Which Emax at 1 µM does the source give for `O=C1CCc2ccc(OCCCCN3CCN(c4ccccn4)CC3)nc2N1` [Example A43, 7-[4-(4-Pyridin-2-yl-piperazin-1-yl)-butoxy]-3,4-dihydro-1H-[1,8]naphthyridin-2-one] here?
**A.** 75%

Same assay, conditions: Table 2; test compound 1 μM; 1 μM Quinpirole = 100% intrinsic activity

**Q.** Which Emax at 1 µM does the source give for `Cc1cc2c(N3CCN(CCCCOc4ccc5c(n4)NC(=O)CC5)CC3)cccc2[nH]1` [Example A27′, 7-{4-[4-(2-Methyl-1H-indol-4-yl)-piperazin-1-yl]-butoxy}-3,4-dihydro-1H-[1,8]naphthyridin-2-one] here?
**A.** 21%

**Q.** With `O=C1CCc2ccc(OCCCCN3CCN(c4cccc5sccc45)CC3)nc2N1` [Example A28′, 7-[4-(4-Benzo[b]thiophen-4-yl-piperazin-1-yl)-butoxy]-3,4-dihydro-1H-[1,8]naphthyridin-2-one] as the compound, how does the Emax at 1 µM read?
**A.** 21%

**Q.** `O=C1CCc2ccc(OCCCCN3CCN(c4cccc5nonc45)CC3)nc2N1` [Example A29′, 7-[4-(4-Benzo[1,2,5]oxadiazol-4-yl-piperazin-1-yl)-butoxy]-3,4-dihydro-1H-[1,8]naphthyridin-2-one] was tested. Which Emax at 1 µM did it give?
**A.** 33%

**Q.** Which Emax at 1 µM does the source give for `O=C1CCc2ccc(OCCCCN3CCN(c4cccc5nsnc45)CC3)nc2N1` [Example A30′, 7-[4-(4-Benzo[1,2,5]thiadiazol-4-yl-piperazin-1-yl)-butoxy]-3,4-dihydro-1H-[1,8]naphthyridin-2-one] here?
**A.** 41%

**Q.** Which Emax at 1 µM does the source give for `CN1CCCc2c1cccc2N1CCN(CCCCOc2ccc3c(n2)NC(=O)CC3)CC1` [Example A32′, 7-{4-[4-(1-Methyl-1,2,3,4-tetrahydro-quinolin-5-yl)-piperazin-1-yl]-butoxy}-3,4-dihydro-1H-[1,8]naphthyridin-2-one] here?
**A.** 27%

**Q.** Which Emax at 1 µM does the source give for `CCN1CCCc2c1cccc2N1CCN(CCCCOc2ccc3c(n2)NC(=O)CC3)CC1` [Example A33′, 7-{4-[4-(1-Ethyl-1,2,3,4-tetrahydro-quinolin-5-yl)-piperazin-1-yl]-butoxy}-3,4-dihydro-1H-[1,8]naphthyridin-2-one] here?
**A.** 18%

**Q.** With `O=C1CCc2ccc(OCCCCN3CCN(c4cccc5cccnc45)CC3)nc2N1` [Example A34′, 7-[4-(4-Quinolin-8-yl-piperazin-1-yl)-butoxy]-3,4-dihydro-1H-[1,8]naphthyridin-2-one] as the compound, how does the Emax at 1 µM read?
**A.** 38%

**Q.** For `O=C1CCc2ccc(OCCCCN3CCN(c4cccc5ncccc45)CC3)nc2N1` [Example A35′, 7-[4-(4-Quinolin-5-yl-piperazin-1-yl)-butoxy]-3,4-dihydro-1H-[1,8]naphthyridin-2-one], which Emax at 1 µM is on record?
**A.** 20%

**Q.** Which Emax at 1 µM does the source give for `O=C1CCc2ccc(OCCCCN3CCN(c4cccc5ccncc45)CC3)nc2N1` [Example A36′, 7-[4-(4-Isoquinolin-8-yl-piperazin-1-yl)-butoxy]-3,4-dihydro-1H-[1,8]naphthyridin-2-one] here?
**A.** 62%

**Q.** Which Emax at 1 µM does the source give for `O=C1CCc2ccc(OCCCCN3CCN(c4cccc5cnccc45)CC3)nc2N1` [Example A37′, 7-[4-(4-Isoquinolin-5-yl-piperazin-1-yl)-butoxy]-3,4-dihydro-1H-[1,8]naphthyridin-2-one] here?
**A.** 45%

**Q.** Which Emax at 1 µM does the source give for `O=C1CCc2ccc(OCCCCN3CCN(c4cccc5ncc(F)cc45)CC3)nc2N1` [Example A38′, 7-{4-[4-(3-Fluoro-quinolin-5-yl)-piperazin-1-yl]-butoxy}-3,4-dihydro-1H-[1,8]naphthyridin-2-one] here?
**A.** 20%

**Q.** `Cc1ccc2cccc(N3CCN(CCCCOc4ccc5c(n4)NC(=O)CC5)CC3)c2n1` [Example A40′, 7-{4-[4-(2-Methyl-quinolin-8-yl)-piperazin-1-yl]-butoxy}-3,4-dihydro-1H-[1,8]naphthyridin-2-one] was tested. Which Emax at 1 µM did it give?
**A.** 30%

**Q.** With `COc1ccc2cccc(N3CCN(CCCCOc4ccc5c(n4)NC(=O)CC5)CC3)c2n1` [Example A41′, 7-{4-[4-(2-Methoxy-quinolin-8-yl)-piperazin-1-yl]-butoxy}-3,4-dihydro-1H-[1,8]naphthyridin-2-one] as the compound, how does the Emax at 1 µM read?
**A.** 32%
